According to PMC3242765, “Inhibitors of Alphavirus Entry and Replication Identified with a Stable Chikungunya Replicon Cell Line and Virus-Based Assays” (PLoS ONE, 2011):
Counter-ions that a name gives are not always drawn.

Tests used:
CHIKV replicon = assay: microbe, parasite or virus in culture; format: cell-based, Chikungunya virus (CHIKV)

Compound: CN1C(=O)C(O)N=C(c2ccccc2)c2cc(Cl)ccc21 (centres unmarked) [Temazepam]
- CHIKV replicon % left (CHIKV replicon): 79.5%
- SFV replication % left (surviving fraction, remaining percentage of SFV replication) (SFV-Rluc): 91.5%

Compound: Benzalkonium chloride
- CHIKV replicon % left (CHIKV replicon): -0.5%
- SFV replication % left (surviving fraction, remaining percentage of SFV replication) (SFV-Rluc): 0.0294%

Compound: Nc1nc(N)c2nc(-c3ccccc3)c(N)nc2n1 [Triamterene]
- CHIKV replicon % left (CHIKV replicon): 71.2%
- SFV replication % left (surviving fraction, remaining percentage of SFV replication) (SFV-Rluc): 93.0%

Compound: CC(C)(C)NCC(O)c1ccc(O)c(CO)c1.CC(C)(C)NCC(O)c1ccc(O)c(CO)c1.O=S(=O)(O)O (racemic) [(+/-) Salbutamol sulfate]
- CHIKV replicon % left (CHIKV replicon): 71.9%
- SFV replication % left (surviving fraction, remaining percentage of SFV replication) (SFV-Rluc): 105.0%

Compound: O=c1oc2ccccc2c(O)c1Cc1c(O)c2ccccc2oc1=O [Dicumarol]
- CHIKV replicon % left (CHIKV replicon): 43.0%
- SFV replication % left (surviving fraction, remaining percentage of SFV replication) (SFV-Rluc): 65.6%

Compound: O=C(Oc1ccccc1)c1ccccc1O [Phenyl salicylate]
- CHIKV replicon % left (CHIKV replicon): 94.3%
- SFV replication % left (surviving fraction, remaining percentage of SFV replication) (SFV-Rluc): 118.2%

Compound: COc1c2occc2cc2ccc(=O)oc12 [Xanthotoxin]
- CHIKV replicon % left (CHIKV replicon): 95.4%
- SFV replication % left (surviving fraction, remaining percentage of SFV replication) (SFV-Rluc): 86.7%

Compound: CC(=O)Oc1c(C)cc(OCC(O)CNC(C)C)c(C)c1C (centres unmarked) [Metipranolol]
- CHIKV replicon % left (CHIKV replicon): 100.5%
- SFV replication % left (surviving fraction, remaining percentage of SFV replication) (SFV-Rluc): 46.2%

Compound: Cc1cc(=O)oc2c3c4c(cc12)CCCN4CCC3 [Coumarin 102]
- CHIKV replicon % left (CHIKV replicon): 65.4%
- SFV replication % left (surviving fraction, remaining percentage of SFV replication) (SFV-Rluc): 34.6%

Compound: COc1cc(-c2[o+]c3cc(O)cc(O[C@@H]4O[C@H](CO)[C@@H](O)[C@H](O)[C@H]4O)c3cc2O[C@@H]2O[C@H](CO)[C@@H](O)[C@H](O)[C@H]2O)cc(OC)c1O.[Cl-] [Malvin chloride]
- CHIKV replicon % left (CHIKV replicon): 72.3%
- SFV replication % left (surviving fraction, remaining percentage of SFV replication) (SFV-Rluc): 15.4%

Compound: NS(=O)(=O)c1cc2c(cc1Cl)NCNS2(=O)=O [Hydrochlorothiazide]
- CHIKV replicon % left (CHIKV replicon): 70.2%
- SFV replication % left (surviving fraction, remaining percentage of SFV replication) (SFV-Rluc): 121.2%

Compound: Cc1c(C)c2c(c(C)c1OC(=O)CCC(=O)O)CC[C@@](C)(CCC[C@H](C)CCC[C@H](C)CCCC(C)C)O2 [(+)-a-Tocopherol acid succinate]
- CHIKV replicon % left (CHIKV replicon): 62.2%
- SFV replication % left (surviving fraction, remaining percentage of SFV replication) (SFV-Rluc): 75.3%

Compound: O=C1NC(=O)C(c2ccccc2)(c2ccccc2)N1 [Diphenylhydantoin [phenytoin]]
- CHIKV replicon % left (CHIKV replicon): 78.1%
- SFV replication % left (surviving fraction, remaining percentage of SFV replication) (SFV-Rluc): 66.3%

Compound: OCc1ccccc1O[C@@H]1O[C@H](CO)[C@@H](O)[C@H](O)[C@H]1O [D(-)-Salicin]
- CHIKV replicon % left (CHIKV replicon): 99.4%
- SFV replication % left (surviving fraction, remaining percentage of SFV replication) (SFV-Rluc): 104.4%

Compound: Cc1ncc(C[n+]2csc(CCO)c2C)c(N)n1.O=[N+]([O-])[O-] [Thiamine mononitrate]
- CHIKV replicon % left (CHIKV replicon): 85.0%
- SFV replication % left (surviving fraction, remaining percentage of SFV replication) (SFV-Rluc): 95.2%

Compound: O=c1cc(-c2ccccc2)oc2ccccc12 [Flavone]
- CHIKV replicon % left (CHIKV replicon): 39.4%
- SFV replication % left (surviving fraction, remaining percentage of SFV replication) (SFV-Rluc): 52.2%

Compound: C[N+]1(C)[C@@H]2CC[C@H]1C[C@@H](OC(=O)C(CO)c1ccccc1)C2 (some centres unmarked) [Atropine methyl nitrate]
- CHIKV replicon % left (CHIKV replicon): 61.7%
- SFV replication % left (surviving fraction, remaining percentage of SFV replication) (SFV-Rluc): 46.8%

Compound: Oc1cc(O)c2c(c1)O[C@H](c1ccc(O)c(O)c1)[C@H](O)C2 [(-)-Epicatechin]
- CHIKV replicon % left (CHIKV replicon): 79.6%
- SFV replication % left (surviving fraction, remaining percentage of SFV replication) (SFV-Rluc): 97.1%

Compound: O.O.O.O=c1ccc2cc(O[C@@H]3O[C@H](CO)[C@@H](O)[C@H](O)[C@H]3O)c(O)cc2o1.O=c1ccc2cc(O[C@@H]3O[C@H](CO)[C@@H](O)[C@H](O)[C@H]3O)c(O)cc2o1 [Esculin sesquihydrate]
- CHIKV replicon % left (CHIKV replicon): 102.6%
- SFV replication % left (surviving fraction, remaining percentage of SFV replication) (SFV-Rluc): 95.0%

Compound: CC1=C2[C@H]3OC(=O)[C@@H](C)[C@@H]3CC[C@@]2(C)C=CC1=O [Santonin]
- CHIKV replicon % left (CHIKV replicon): 101.9%
- SFV replication % left (surviving fraction, remaining percentage of SFV replication) (SFV-Rluc): 99.9%

Compound: Cc1ccc(O)c(O)c1 [4-Methyl pyrocatechol]
- CHIKV replicon % left (CHIKV replicon): 98.8%
- SFV replication % left (surviving fraction, remaining percentage of SFV replication) (SFV-Rluc): 111.1%

Compound: CC(C)(C)NCC(O)c1cc(O)cc(O)c1.CC(C)(C)NCC(O)c1cc(O)cc(O)c1.O=S(=O)(O)O (centres unmarked) [Terbutaline hemisulfate salt]
- CHIKV replicon % left (CHIKV replicon): 87.2%
- SFV replication % left (surviving fraction, remaining percentage of SFV replication) (SFV-Rluc): 97.5%

Compound: NC(=O)c1cccnc1 [Nicotinamide]
- CHIKV replicon % left (CHIKV replicon): 99.1%
- SFV replication % left (surviving fraction, remaining percentage of SFV replication) (SFV-Rluc): 116.9%

Compound: CC(CCc1ccccc1)NCC(O)c1ccc(O)c(C(N)=O)c1 (centres unmarked) [Labetalol hydrochloride]
- CHIKV replicon % left (CHIKV replicon): 100.1%
- SFV replication % left (surviving fraction, remaining percentage of SFV replication) (SFV-Rluc): 72.5%

Compound: OCCOCCN1CCN(C(c2ccccc2)c2ccc(Cl)cc2)CC1 (centres unmarked) [Hydroxyzine hydrochloride]
- CHIKV replicon % left (CHIKV replicon): 100.5%
- SFV replication % left (surviving fraction, remaining percentage of SFV replication) (SFV-Rluc): 98.3%

Compound: O=C1c2c(O)cc(O)cc2O[C@H](c2ccc(O)c(O)c2)[C@H]1O [(+)-Taxifolin]
- CHIKV replicon % left (CHIKV replicon): 105.4%
- SFV replication % left (surviving fraction, remaining percentage of SFV replication) (SFV-Rluc): 93.7%

Compound: C[N+]1(C)[C@@H]2CC[C@H]1C[C@@H](OC(=O)C(CO)c1ccccc1)C2 (some centres unmarked) [Methylatropine bromide]
- CHIKV replicon % left (CHIKV replicon): 54.9%
- SFV replication % left (surviving fraction, remaining percentage of SFV replication) (SFV-Rluc): 70.9%

Compound: CC(Cc1ccc(O)c(O)c1)C(C)Cc1ccc(O)c(O)c1 (centres unmarked) [Nordihydroguaiaretic acid]
- CHIKV replicon % left (CHIKV replicon): 28.3%
- SFV replication % left (surviving fraction, remaining percentage of SFV replication) (SFV-Rluc): 35.6%

Compound: CC(C)(CO)[C@@H](O)C(=O)NCCC(=O)O [Calcium pantothenate]
- CHIKV replicon % left (CHIKV replicon): 89.1%
- SFV replication % left (surviving fraction, remaining percentage of SFV replication) (SFV-Rluc): 67.9%

Compound: CCOc1ccc(NC(N)=O)cc1 [Dulcin [p-phenetylurea]]
- CHIKV replicon % left (CHIKV replicon): 70.2%
- SFV replication % left (surviving fraction, remaining percentage of SFV replication) (SFV-Rluc): 103.3%

Compound: CC1=CC(=O)c2ccccc2C1=O [Menadione [2-Methyl-1,4-naphtoquinone]]
- CHIKV replicon % left (CHIKV replicon): 31.1%
- SFV replication % left (surviving fraction, remaining percentage of SFV replication) (SFV-Rluc): 28.3%

Compound: O=C(O)[C@]1(O)C[C@@H](O)[C@@H](O)[C@H](O)C1 [(-)-Quinic acid]
- CHIKV replicon % left (CHIKV replicon): 106.9%
- SFV replication % left (surviving fraction, remaining percentage of SFV replication) (SFV-Rluc): 98.2%

Compound: NCCN1C(=O)CN=C(c2ccccc2F)c2cc(Cl)ccc21 [Desalkylflurazepam]
- CHIKV replicon % left (CHIKV replicon): 74.3%
- SFV replication % left (surviving fraction, remaining percentage of SFV replication) (SFV-Rluc): 68.5%

Compound: CCC1(c2ccccc2)C(=O)NC(=O)NC1=O [Phenobarbital sodium]
- CHIKV replicon % left (CHIKV replicon): 70.8%
- SFV replication % left (surviving fraction, remaining percentage of SFV replication) (SFV-Rluc): 88.1%

Compound: C[C@H]1O[C@@H](O[C@H]2[C@@H](O)C[C@H](O[C@H]3[C@@H](O)C[C@H](O[C@H]4CC[C@@]5(C)[C@H](CC[C@@H]6[C@@H]5C[C@@H](O)[C@]5(C)[C@@H](C7=CC(=O)OC7)CC[C@]65O)C4)O[C@@H]3C)O[C@@H]2C)C[C@H](O)[C@@H]1O [Digoxin]
- CHIKV replicon % left (CHIKV replicon): 94.3%
- SFV replication % left (surviving fraction, remaining percentage of SFV replication) (SFV-Rluc): 141.9%

Compound: CC(C)(CO)[C@@H](O)C(=O)NCCC(=O)[O-].CC(C)(CO)[C@@H](O)C(=O)NCCC(=O)[O-].O.[Ca+2]
- CHIKV replicon % left (CHIKV replicon): 106.1%
- SFV replication % left (surviving fraction, remaining percentage of SFV replication) (SFV-Rluc): 93.1%

Compound: Cc1ccccc1OCC(O)CO (centres unmarked)
- CHIKV replicon % left (CHIKV replicon): 54.1%
- SFV replication % left (surviving fraction, remaining percentage of SFV replication) (SFV-Rluc): 79.2%

Compound: COc1cc(C=O)ccc1O [Vanillin]
- CHIKV replicon % left (CHIKV replicon): 71.7%
- SFV replication % left (surviving fraction, remaining percentage of SFV replication) (SFV-Rluc): 47.9%

Compound: NC(=O)NS(=O)(=O)c1ccc(N)cc1.O [Sulfaninyl urea hydrate]
- CHIKV replicon % left (CHIKV replicon): 92.8%
- SFV replication % left (surviving fraction, remaining percentage of SFV replication) (SFV-Rluc): 120.2%

Compound: CN(C)CCOC(c1ccccc1)c1ccccc1 [Diphenhydramine hydrochloride]
- CHIKV replicon % left (CHIKV replicon): 194.3%
- SFV replication % left (surviving fraction, remaining percentage of SFV replication) (SFV-Rluc): 41.0%

Compound: Cc1nnc(NS(=O)(=O)c2ccc(N)cc2)s1 [Sulfamethylthiadiazole]
- CHIKV replicon % left (CHIKV replicon): 92.1%
- SFV replication % left (surviving fraction, remaining percentage of SFV replication) (SFV-Rluc): 89.6%

Compound: O=C(/C=C/c1ccc(O)c(O)c1)O[C@H](Cc1ccc(O)c(O)c1)C(=O)O [Rosmarinic acid]
- CHIKV replicon % left (CHIKV replicon): 98.8%
- SFV replication % left (surviving fraction, remaining percentage of SFV replication) (SFV-Rluc): 120.3%

Compound: O=c1cc(-c2ccc(O)c(O)c2)oc2cc(O[C@@H]3O[C@H](CO)[C@@H](O)[C@H](O)[C@H]3O)cc(O)c12 [Luteolin-7-glucoside]
- CHIKV replicon % left (CHIKV replicon): 54.4%
- SFV replication % left (surviving fraction, remaining percentage of SFV replication) (SFV-Rluc): 17.8%

Compound: CN(Cc1cc(Br)cc(Br)c1N)C1CCCCC1 [Bromhexine hydrochloride]
- CHIKV replicon % left (CHIKV replicon): 82.8%
- SFV replication % left (surviving fraction, remaining percentage of SFV replication) (SFV-Rluc): 64.8%

Compound: CC(=O)Nc1ccccc1 [Acetanilide]
- CHIKV replicon % left (CHIKV replicon): 92.2%
- SFV replication % left (surviving fraction, remaining percentage of SFV replication) (SFV-Rluc): 57.3%

Compound: CCCCNCC(O)c1ccc(O)cc1 (centres unmarked) [Bamethan]
- CHIKV replicon % left (CHIKV replicon): 96.9%
- SFV replication % left (surviving fraction, remaining percentage of SFV replication) (SFV-Rluc): 67.1%
